One assay concerns MDA/MB231. The assay is described as follows: Cellular proliferation assay (Alamar blue), MDA/MB231. The assay is classed as cell-based. The following applies: Homo sapiens, MDA-MB-231, 72 h, MDA/MB231 cells, 72 hours with compound, 10% FCS, read-out: pIC50 MDA/MB231 (converted). In short, it runs like this:
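Cells in 10% FCS were seeded and left 24 h without compound, then treated for 72 h at 37° C. Viability read with Alamar blue (resazurin 9 μg/ml, ferro-/ferricyanide 90 μM each), incubated 4 h for H460 and 24 h for MDA-MB-231; fluorescence 544/590 nm, effect relative to control cells.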

Another assay deals with SK-N-SH. The assay is described as follows: Cellular proliferation assay (Alamar blue), SK-N-SH. It counts as cell-based. As to conditions: Homo sapiens, SK-N-SH cells, 72 hours with compound, 10% FCS, read-out: pIC50 SK-N-SH (converted). Put shortly:
(§1)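 Proliferation was assessed over 72 h of compound treatment, following 24 h of seeding without compound, under 10% FCS, 37° C. and 5% CO2. Fluorescent resazurin product was measured and compared with control cells.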
On the technique in general: Resazurin is reduced to fluorescent resorufin, in cell work by metabolically active cells.

Another assay deals with H460. The experiment in a line: Cellular proliferation assay (Alamar blue), H460. The assay is classed as cell-based. As to conditions: Homo sapiens, NCI-H460, H460 cells, 72 hours with compound, 10% FCS, read-out: pIC50 H460 (converted). The method, then: (§2) […] functional properties of these compounds was tested in cellular proliferation assays on a panel of different cell lines in the presence of 10% FCS serum (37° C. and 5% (v/v) CO2). In a first step these cells were seeded and incubated for 24 hours in the absence of compound. In the second step the cells were incubated for 72 hours with the compounds to be tested for 72 hours. The viable cell number was finally assessed in a standard Alamar blue cell viability assay.
(§3) The viable cell number was assessed by incubation for either 4 h (HCT-116, H1299, H460) 6 h (SKOV3, HT29, U87-MG, Colo205) or 24 h (A2780, PC3, MDA-MB-231, A549, MCF-7) with Alamar blue (Resazurin 9 μg/ml, K-Ferrocyanide 90 μM K-Ferricyanide 90 μM) and the converted fluorescent product was quantified on a fluorescent plate readed (544 nm/590 nm). Effect of the compounds is calculated as of on control cells.

Another assay relates to HT-29. The assay is described as follows: Cellular proliferation assay (Alamar blue), HT-29. It counts as cell-based. As to conditions: Homo sapiens, HT-29 cells, 72 hours with compound, 10% FCS, read-out: pIC50 HT-29 (converted). Put shortly:
as §1

Another assay concerns U87MG. The experiment in a line: Cellular proliferation assay (Alamar blue), U87MG. It counts as cell-based. As to conditions: Homo sapiens, U-87 MG, 72 h, U87MG cells, 72 hours with compound, 10% FCS, read-out: pIC50 U87MG (converted). Put shortly: as §1
The next assay has as its system HCT-116. The experiment in a line: Cellular proliferation assay (Alamar blue), HCT-116. The assay is classed as cell-based. The following applies: Homo sapiens, HCT-116, 72 h, HCT-116 cells, 72 hours with compound, 10% FCS, read-out: pIC50 HCT-116 (converted). Put shortly:
as §1

Another assay has as its system A549. The assay is described as follows: Cellular proliferation assay (Alamar blue), A549. It counts as cell-based. As to conditions: Homo sapiens, A549 cells, 72 hours with compound, 10% FCS, read-out: pIC50 A549 (converted). Put shortly:
as §1

In the next assay the test system is A2780. The assay is described as follows: Cellular proliferation assay (Alamar blue), A2780. As to conditions: Homo sapiens, A2780, 72 h, A2780 cells, 72 hours with compound, 10% FCS, read-out: pIC50 A2780 (converted). The assay is classed as cell-based. Put shortly: as §1
The subject of another assay is A431. The assay is described as follows: Cellular proliferation assay (Alamar blue), A431. The assay is classed as cell-based. As to conditions: Homo sapiens, A-431, A431 cells, 72 hours with compound, 10% FCS, read-out: pIC50 A431 (converted). The method, then: as §2, §3
In the next assay the target is PLK4 (h) (Homo sapiens, UniProt O00444). The experiment in a line: PLK-4 human kinase assay (SPA). The assay is classed as biochemical. The following applies: read-out: PLK4 pIC50 (converted). In short, it runs like this: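 Radiometric readout: 33P-labelled peptide captured on streptavidin SPA beads after EDTA stop, imaged by Leadseeker. Reaction ran 60 min at room temperature in Hepes pH 8.0 buffer. It contained 1 μM ATP with 2 nM [γ-33P]ATP, 10 μM biotinylated peptide and PLK4 (h) at 19 μg/ml.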
Sequence of PLK4 (h) (O00444 whole entry): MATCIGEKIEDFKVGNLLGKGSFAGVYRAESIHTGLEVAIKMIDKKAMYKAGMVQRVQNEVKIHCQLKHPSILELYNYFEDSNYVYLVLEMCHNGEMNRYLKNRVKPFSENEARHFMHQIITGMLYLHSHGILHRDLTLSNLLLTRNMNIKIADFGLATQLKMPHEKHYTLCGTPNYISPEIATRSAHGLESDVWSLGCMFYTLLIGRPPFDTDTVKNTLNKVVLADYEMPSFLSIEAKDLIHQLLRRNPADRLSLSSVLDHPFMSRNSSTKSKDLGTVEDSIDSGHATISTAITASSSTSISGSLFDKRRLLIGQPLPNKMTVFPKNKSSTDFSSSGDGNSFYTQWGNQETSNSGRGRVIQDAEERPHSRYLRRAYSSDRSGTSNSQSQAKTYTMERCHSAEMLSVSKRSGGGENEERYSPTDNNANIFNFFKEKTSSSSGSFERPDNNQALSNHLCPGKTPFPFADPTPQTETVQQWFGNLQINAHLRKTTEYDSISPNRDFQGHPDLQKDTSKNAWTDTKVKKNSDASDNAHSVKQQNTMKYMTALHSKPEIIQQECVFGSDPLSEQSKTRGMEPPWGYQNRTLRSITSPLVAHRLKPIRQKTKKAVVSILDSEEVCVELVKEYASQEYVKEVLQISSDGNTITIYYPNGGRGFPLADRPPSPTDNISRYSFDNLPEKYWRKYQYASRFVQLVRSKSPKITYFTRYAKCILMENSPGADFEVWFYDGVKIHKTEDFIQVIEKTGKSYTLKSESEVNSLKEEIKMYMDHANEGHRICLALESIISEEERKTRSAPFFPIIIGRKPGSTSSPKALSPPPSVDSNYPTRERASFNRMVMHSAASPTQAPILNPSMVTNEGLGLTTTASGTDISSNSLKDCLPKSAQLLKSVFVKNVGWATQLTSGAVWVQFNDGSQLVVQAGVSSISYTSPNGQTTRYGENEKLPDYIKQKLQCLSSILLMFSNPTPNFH

The structures appear in SMILES notation. Several values for one entry are separate records, joined by “and”; a condition that tells them apart may be missing. Equal values may be shown once. Where only a bound is given, the exact number is not on record here.

Take `COc1ccc2cc1OCCCC(=O)N(C)CCCNc1ncnc3c1/C(=C/N2)C(=O)N3` [Compound 9]: the IC50 in the assay with MDA/MB231 is 1380 nM; in the assay with SK-N-SH it was less than 302 nM; in the assay with H460, 372 nM; in the assay with HT-29, 525 nM; with U87MG it was 2240 nM; in the assay with HCT-116, 457 nM. The IC50 in the assay on A549 is less than 302 nM; in the assay with A2780, 282 nM; in the assay on A431, 1.45 µM; on PLK4 (h), 55 nM and 52.5 nM.
Consider `COc1ccc2cc1OCCCCCC(=O)N1CCN(CC1)c1ncnc3c1/C(=C/N2)C(=O)N3` [Compound 18], for which the IC50 in the assay on MDA/MB231, with SK-N-SH, in the assay on H460, with HT-29, in the assay on HCT-116 and in the assay with A549 was more than 10000 nM in each case. Moreover, the figures for the IC50 in the assay with A431 and on PLK4 (h) were more than 10 µM and 4790 nM, respectively.
For the molecule `COc1ccc2cc1OCCCC(=O)N(C)CCCN(C)c1ncnc3c1/C(=C/N2)C(=O)N3` [Compound 31], the IC50 with MDA/MB231 was 1910 nM; in the assay on SK-N-SH it was less than 302 nM; in the assay with H460, 1000 nM; in the assay on HT-29, 2820 nM; in the assay with U87MG it was 1620 nM; in the assay with HCT-116, 1580 nM. Moreover, the IC50 was 537 nM with A549, 2880 nM in the assay on A2780, more than 10 µM in the assay on A431 and 525 nM at PLK4 (h).

(Values after US8338422B2, “Indolin-2-ones and aza-indolin-2-ones” (Janssen Pharmaceutica NV, priority 2007, dated 2012).)
